Like-named read-outs stand apart in the source and are kept apart here.
Assays:
[1] = system: HI650 (Lung Adenocarcinoma); assay: Cell viability analysis, lung cancer HI650; type: cell-based, human; details: Homo sapiens, NCI-H1650, 72 h
[2] = system: A549 (Lung Adenocarcinoma); assay: Cell viability analysis, lung cancer A549; type: cell-based, human; details: Homo sapiens, A549, 72 h
[3] = system: AGS (Gastric Adenocarcinoma); assay: Cell viability analysis, gastric cancer AGS; type: cell-based, human; details: Homo sapiens, 72 h
[4] = system: MKN-45 (Gastric Adenocarcinoma); assay: Cell viability analysis, gastric cancer MKN-45; type: cell-based, human; details: Homo sapiens, MKN-45, 72 h
[5] = system: HepG2 (Hepatocellular Carcinoma); assay: Cell viability analysis, hepatic cancer HepG2; type: cell-based, human; details: Homo sapiens, HepG2, 72 h
[6] = system: Hep3B (hepatocellular carcinoma); assay: Cell viability analysis, hepatic cancer Hep3B; type: cell-based, human; details: Homo sapiens, 72 h; Hep3B; repeated experiment; read-out: The results of antibiotic drug inhibiting cancer cell lines (cell viability analysis), Hep3B
[7] = system: LoVo (Colorectal Adenocarcinoma); assay: Cell viability analysis, colon cancer LoVo; type: cell-based, human; details: Homo sapiens, LoVo, 72 h
[8] = system: A375 (Amelanotic Melanoma); assay: Cell viability analysis, skin cancer A375; type: cell-based, human; details: Homo sapiens, A-375, 72 h
[9] = system: BCC (basal cell carcinoma); assay: Cell viability analysis, skin cancer BCC; type: cell-based, human; details: Homo sapiens, 72 h; BCC; repeated experiment; read-out: The results of antibiotic drug inhibiting cancer cell lines (cell viability analysis), BCC
[10] = system: HeLa (Cervix Adenocarcinoma); assay: Cell viability analysis, cervical cancer HeLa; type: cell-based, human; details: Homo sapiens, HeLa, 72 h, HeLa
[11] = system: C-33A (Cervical carcinoma); assay: Cell viability analysis, cervical cancer C-33A; type: cell-based, human; details: Homo sapiens, 72 h; C-33A; repeated experiment; read-out: The results of antibiotic drug inhibiting cancer cell lines (cell viability analysis), C-33A
[12] = system: PC3 (p53−) (Prostate Adenocarcinoma); assay: Cell viability analysis, prostate cancer PC3; type: cell-based, human; details: Homo sapiens, 72 h
[13] = system: TSGH-8301 (Urinary Bladder Carcinoma); assay: Cell viability analysis, bladder cancer TSGH-8301; type: cell-based, human; details: Homo sapiens, 72 h
[14] = system: T24; assay: Cell viability analysis, bladder cancer T24; type: cell-based, human; details: Homo sapiens, T-24, 72 h; T24; repeated experiment; read-out: The results of antibiotic drug inhibiting cancer cell lines (cell viability analysis), T24
[15] = system: MCF7 (Mammary Gland, Adenocarcinoma); assay: Cell viability analysis, breast cancer MCF7; type: cell-based, human; details: Homo sapiens, MCF7, 72 h
[16] = system: MDA-MB-231 (Mammary Gland, Adenocarcinoma); assay: Cell viability analysis, breast cancer MDA-MB-231; type: cell-based, human; details: Homo sapiens, MDA-MB-231, 72 h; MDA-MB231; repeated experiment; read-out: The results of antibiotic drug inhibiting cancer cell lines (cell viability analysis), MDA-MB231
[17] = system: BxPC-3; assay: Cell viability analysis, pancreatic cancer BxPC-3; type: cell-based, human; details: Homo sapiens, 72 h; BxPC-3; repeated experiment; read-out: The results of antibiotic drug inhibiting cancer cell lines (cell viability analysis), BxPC-3
[18] = system: AsPC-1; assay: Cell viability analysis, pancreatic cancer AsPC-1; type: cell-based, human; details: Homo sapiens, ASPC1, 72 h; AsPC-1; repeated experiment; read-out: The results of antibiotic drug inhibiting cancer cell lines (cell viability analysis), AsPC-1
[19] = system: NIH: OVCAR-3; assay: Cell viability analysis, ovarian cancer NIH: OVCAR-3; type: cell-based, human; details: Homo sapiens, 72 h; NIH-OVCAR-3; repeated experiment; read-out: The results of antibiotic drug inhibiting cancer cell lines (cell viability analysis), NIH-OVCAR-3
[20] = system: TOV-21G; assay: Cell viability analysis, ovarian cancer TOV-21G; type: cell-based, human; details: Homo sapiens, TOV21G, 72 h; TOV-21G; repeated experiment; read-out: The results of antibiotic drug inhibiting cancer cell lines (cell viability analysis), TOV-21G
[21] = system: SAS (Tongue squamous cell carcinoma); assay: Cell viability analysis, tongue cancer SAS; type: cell-based, human; details: Homo sapiens, 72 h; SAS; repeated experiment; read-out: The results of antibiotic drug inhibiting cancer cell lines (cell viability analysis), SAS
[22] = system: U-2OS; assay: Cell viability analysis, osteosarcoma U-2OS; type: cell-based, human; details: Homo sapiens, 72 h; U2OS; repeated experiment; read-out: The results of antibiotic drug inhibiting cancer cell lines (cell viability analysis), U2OS
[23] = system: 786-O (Renal adenocarcinoma); assay: Cell viability analysis, renal cancer 786-O; type: cell-based, human; details: Homo sapiens, 786-0, 72 h; 786-O; repeated experiment; read-out: The results of antibiotic drug inhibiting cancer cell lines (cell viability analysis), 786-O
[24] = system: HCT116 (p53+) (Colorectal Carcinoma)
[25] = H1650, repeated experiment, read-out: The results of antibiotic drug inhibiting cancer cell lines (cell viability analysis), H1650
[26] = drug 10 μM, 72 hours, WST-1, OD450 nm, read-out: cell viability (survival rate), H1650
[27] = A549, repeated experiment, read-out: The results of antibiotic drug inhibiting cancer cell lines (cell viability analysis), A549
[28] = drug 10 μM, 72 hours, WST-1, OD450 nm, read-out: cell viability (survival rate), A549
[29] = AGS, repeated experiment, read-out: The results of antibiotic drug inhibiting cancer cell lines (cell viability analysis), AGS
[30] = drug 10 μM, 72 hours, WST-1, OD450 nm, read-out: cell viability (survival rate), AGS
[31] = MKN-45, repeated experiment, read-out: The results of antibiotic drug inhibiting cancer cell lines (cell viability analysis), MKN-45
[32] = drug 10 μM, 72 hours, WST-1, OD450 nm, read-out: cell viability (survival rate), MKN-45
[33] = HepG2, repeated experiment, read-out: The results of antibiotic drug inhibiting cancer cell lines (cell viability analysis), HepG2
[34] = drug 10 μM, 72 hours, WST-1, OD450 nm, read-out: cell viability (survival rate), HepG2
[35] = read-out: The results of antibiotic drug inhibiting cancer cell lines (cell viability analysis), LoVo, repeated experiment
[36] = read-out: cell viability (survival rate), LoVo, drug 10 μM, 72 hours, WST-1, OD450 nm
[37] = A375, repeated experiment, read-out: The results of antibiotic drug inhibiting cancer cell lines (cell viability analysis), A375
[38] = drug 10 μM, 72 hours, WST-1, OD450 nm, read-out: cell viability (survival rate), A375
[39] = repeated experiment, read-out: The results of antibiotic drug inhibiting cancer cell lines (cell viability analysis), HeLa
[40] = drug 10 μM, 72 hours, WST-1, OD450 nm, read-out: cell viability (survival rate), HeLa
[41] = PC-3, repeated experiment, read-out: The results of antibiotic drug inhibiting cancer cell lines (cell viability analysis), PC-3
[42] = drug 10 μM, 72 hours, WST-1, OD450 nm, read-out: cell viability (survival rate), PC3
[43] = TSGH-8301, repeated experiment, read-out: The results of antibiotic drug inhibiting cancer cell lines (cell viability analysis), TSGH-8301
[44] = drug 10 μM, 72 hours, WST-1, OD450 nm, read-out: cell viability (survival rate), TSGH
[45] = MCF-7, repeated experiment, read-out: The results of antibiotic drug inhibiting cancer cell lines (cell viability analysis), MCF-7
[46] = drug 10 μM, 72 hours, WST-1, OD450 nm, read-out: cell viability (survival rate), MCF7

Row | SMILES | viability at 10 µM [1, 25] | viability at 10 µM [1, 26] | viability at 10 µM [2, 27] | viability at 10 µM [2, 28] | viability at 10 µM [3, 29] | viability at 10 µM [3, 30] | viability at 10 µM [4, 31] | viability at 10 µM [4, 32] | viability at 10 µM [5, 33] | viability at 10 µM [5, 34] | viability at 10 µM [6] | viability at 10 µM [7, 35] | viability at 10 µM [7, 36] | viability at 10 µM [8, 37] | viability at 10 µM [8, 38] | viability at 10 µM [9] | viability at 10 µM [10, 39] | viability at 10 µM [10, 40] | viability at 10 µM [11] | viability at 10 µM [12, 41] | also measured
1 | Cc1ccc2c(Cl)cc(Cl)c(O)c2n1 [Chlorquinaldol] | 75.2% | 59.6% | 37.8% | 54.5% | 53.9% | 35.7% | 92.4% | 75.4% | 82% | 82.3% | 105% | 45.8% | 62.8% | 35.5% | 43% | 43% | 64.9% | 42.6% | 47.5% | 66.4% | viability at 10 µM [12, 42]: 68.4%; viability at 10 µM [13, 43]: 87%; viability at 10 µM [13, 44]: 70.5%; viability at 10 µM [14]: 50.6%; viability at 10 µM [15, 45]: 30.2%; viability at 10 µM [15, 46]: 47.8%; viability at 10 µM [16]: 65%; viability at 10 µM [17]: 53.9%; viability at 10 µM [18]: 62.8%; viability at 10 µM [19]: 78.1%; viability at 10 µM [20]: 40.1%; viability at 10 µM [21]: 20.6%; viability at 10 µM [22]: 32.4%; viability at 10 µM [23]: 41.8%; viability [24]: 38.5%
2 | CCCCCCCCCCCCCCCC[N+](C)(C)CCN(Cc1ccc(OC)cc1)c1ncccn1 [Thonzonium Bromide] | 37.6% | 36.7% | 15% | 36.6% | 14.4% | 22.5% | 31.2% | 47% | 47.7% | 45.1% | 51.3% | 50.9% | 39.4% | 12.4% | 24.4% | 23.4% | 20.3% | 28% | 32.5% | 29.3% | viability at 10 µM [12, 42]: 46.2%; viability at 10 µM [13, 43]: 16.7%; viability at 10 µM [13, 44]: 18.4%; viability at 10 µM [14]: 18.5%; viability at 10 µM [15, 45]: 41%; viability at 10 µM [15, 46]: 47%; viability at 10 µM [16]: 33.1%; viability at 10 µM [17]: 24.4%; viability at 10 µM [18]: 27.6%; viability at 10 µM [19]: 55.7%; viability at 10 µM [20]: 17.4%; viability at 10 µM [21]: 20.4%; viability at 10 µM [22]: 31.7%; viability at 10 µM [23]: 16.8%; viability [24]: 18.8%

Reference: patent publication US10105357B2, “Indication of antibiotic drugs for preparation of cancer inhibition pharmaceutical composition” (LAUNX BIOMEDICAL CO., LTD., priority 2014, dated 2018)
